Test results: US7033772B1, “Methods of identifying inhibitors of fatty acid transport proteins (FATP)” (Millennium Pharmaceuticals, Inc., priority 1998, dated 2006)
Like-named read-outs stand apart in the source and are kept apart here.

Legend:
[1] = molecular target: T1, FATP4 (Homo sapiens, UniProt Q6P1M0); assay: Competition of Bodipy-FA uptake by FATP4 expressing cells (FACS); assay type: cell-based; details: for inhibition at 100 µM: read-out: Competition (inhibition of Bodipy-FA uptake)
T1 construct: expressed in transfected cells; host or cells: 293 cells (human kidney), stably transfected with pIRES-neo-hsFATP4, G418-selected
T1 sequence (Q6P1M0 whole entry): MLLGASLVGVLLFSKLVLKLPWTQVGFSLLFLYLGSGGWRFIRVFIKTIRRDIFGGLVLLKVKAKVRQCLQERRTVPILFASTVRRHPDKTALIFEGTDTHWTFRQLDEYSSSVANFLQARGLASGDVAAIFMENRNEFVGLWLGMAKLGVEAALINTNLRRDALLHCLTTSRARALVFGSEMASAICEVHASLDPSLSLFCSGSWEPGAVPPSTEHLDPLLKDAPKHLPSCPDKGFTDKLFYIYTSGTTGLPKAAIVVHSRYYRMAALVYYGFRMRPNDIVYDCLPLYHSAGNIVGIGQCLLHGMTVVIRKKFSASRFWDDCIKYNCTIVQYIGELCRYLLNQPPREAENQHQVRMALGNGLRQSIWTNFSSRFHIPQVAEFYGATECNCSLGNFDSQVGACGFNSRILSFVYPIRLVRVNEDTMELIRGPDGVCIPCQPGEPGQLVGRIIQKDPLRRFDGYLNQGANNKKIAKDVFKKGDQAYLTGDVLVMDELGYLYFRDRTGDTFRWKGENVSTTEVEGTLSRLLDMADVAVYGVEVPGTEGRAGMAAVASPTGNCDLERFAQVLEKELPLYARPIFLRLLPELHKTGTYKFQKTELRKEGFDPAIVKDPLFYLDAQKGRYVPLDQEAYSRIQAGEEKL
Method: Bodipy-FA uptake assays using FACS were performed, adapted to a 96-well format. LCFA uptake assays with enterocytes or with stably transfected 293 cells were done as follows. Mixed micelles of radiolabeled FA (NEN) and taurocholate (Sigma) in HBS were generated by brief sonication at 37° C. […] Final taurocholate concentration was 5 mM. Cells were incubated for the indicated amount of time at 37° C. The assay was stopped by transferring the cells onto filter paper followed by extensive washes with ice-cold HBS containing 0.1% BSA using a cell harvester (Brandell). Incorporated oleate was then determined by β-scintillation counting (Beckman).

[2] = molecular target: T2, hsFATP4 (Homo sapiens, UniProt Q6P1M0); assay: Uptake of radiolabeled substrates by 293 cells stably expressing FATP4; assay type: cell-based; details: for Uptake, 293 Cells Stably Expressing FATP4: 10 μM substrate in HBS with 5 mM taurocholate, rate over 4 min; for Uptake, FATP4 specific: FATP4-expressing minus control 293 cells, 10 μM substrate, 5 mM taurocholate; for Effect of hsFATP4 expression on uptake of the substrate (in words): stably transfected 293 cells vs vector
T2 construct: expressed in transfected cells; host or cells: 293 cells (human kidney), stably transfected with pIRES-neo-hsFATP4, G418-selected
T2 sequence (Q6P1M0 whole entry): as above
Method: Using a mammalian expression vector, we generated 40 stable […] cell lines expressing hsFATP4 and 20 cell lines transfected with a control plasmid.
(§1) Several of the cell lines with the highest amount of Bodipy-FA uptake as well as isolated primary enterocytes were used to measure the uptake of radiolabeled FAs.
(§2) Bodipy-FA uptake assays using FACS were performed, adapted to a 96-well format. LCFA uptake assays with enterocytes or with stably transfected 293 cells were done as follows. Mixed micelles of radiolabeled FA (NEN) and taurocholate (Sigma) in HBS were generated by brief sonication at 37° C. Equal volumes of cells and micelle solution were mixed, resulting in a final FA concentration of 25 μM for antisense assays and 10 μM for substrate specificity assays. Final taurocholate concentration was 5 mM. Cells were incubated for the indicated amount of time at 37° C. The assay was stopped by transferring the cells onto filter paper followed by extensive washes with ice-cold HBS containing 0.1% BSA using a cell harvester (Brandell). Incorporated oleate was then determined by β-scintillation counting (Beckman).

[3] = system: 293 cells; assay: Uptake of radiolabeled substrates by control (vector) 293 cells; assay type: cell-based, human; details: 10 μM substrate in HBS with 5 mM taurocholate; rate over 4 min
Method: as §1, §2

[4] = system: enterocytes; assay: Uptake of radiolabeled substrates by isolated primary enterocytes; assay type: cell-based, mouse; details: for Uptake, Enterocytes: 10 μM substrate in HBS with 5 mM taurocholate, rate over 4 min; for Transport of the substrate by isolated primary enterocytes (in words): compared with transfected 293 cells
Method: as §1, §2

[5] = system: FATP4 mRNA; assay: Oleate uptake by isolated mouse enterocytes after incubation with FATP4 oligonucleotides; assay type: cell-based; details: 100 μM oligonucleotide; for Inhibition of fatty acid (oleate) uptake over time: 48 h, 25 μM oleate, FIG. 40
[6] = system: enterocytes; assay: 35S-methionine uptake by cultured enterocytes after oligonucleotide treatment (specificity control); assay type: cell-based, mouse; details: 100 μM oligonucleotide, 48 h; FIG. 42
Method: As a further control experiment, the uptake of oleate was measured along with the uptake of methionine in the same cultured enterocytes. Antisense oligonucleotide, mismatch sequence oligonucleotide, or no oligonucleotide was added to a concentration of 100 μM to cultures of enterocytes. After incubation for 48 hours, the uptake of both ^3H-labeled oleate and ^35S-labeled methionine was assayed. Fatty acid uptake is at the left side of the paired bars; methionine uptake is on the right side of the paired bars.

[7] = 5 μM Bodipy-FA, 100 μM competitor (20-fold molar excess), 100% = effect of 200 μM lauric acid

Question: With `CCCCCCCCCCCCCCCCCC(=O)OC` [Stearic Acid Methyl Ester] as the compound, how does the inhibition at 100 µM [1] read?
Answer: The inhibition at 100 µM was 0 to 30%.

Question: How did the inhibition at 100 µM [1, 7] turn out when `CCCCCCCCCCCCCCCCCCCC(=O)O` [Arachidic Acid] was run?
Answer: The inhibition at 100 µM was 70 to 100%.

Question: Which inhibition at 100 µM [1] does the source give for `CCCCCC(=O)O` [Caproic Acid] here?
Answer: The inhibition at 100 µM was 0 to 30%.

Question: How did the inhibition at 100 µM [1, 7] turn out when `CCCCCCCCCCCCCCCC(=O)OC` [Palmitic Acid Methyl Ester] was run?
Answer: Its inhibition at 100 µM is 0 to 30%.

Question: How did the “Uptake, 293 Cells Stably Expressing FATP4” value [2] turn out when `CCCCC/C=C\C/C=C\CCCCCCCC(=O)O` [Linolate, Linoleic Acid] was run?
Answer: The value was 673 pmol/min 10^6 cells.

Question: What about the “Uptake, FATP4 specific” value [2] of the same compound?
Answer: Its value is 33 pmol/min 10^6 cells.

Question: And the “Effect of hsFATP4 expression on uptake of the substrate (in words)” value (shortened to “Effect of hsFATP4 expression”) [2]?
Answer: Its value is “not”.

Question: And the inhibition at 100 µM [1, 7]?
Answer: The inhibition at 100 µM was 70 to 100%.

Question: What about the “Uptake, 293 Cells Control” value [3] of the same compound?
Answer: The value was 640 pmol/min 10^6 cells.

Question: And the “Uptake, Enterocytes” value [4]?
Answer: Its value is 116 pmol/min 10^6 cells.

Question: And the “Transport of the substrate by isolated primary enterocytes (in words)” value (shortened to “Transport of the substrate”) [4]?
Answer: Its value is “more robust transport”.

Question: For `CC1=C(C/C=C(\C)CCC[C@H](C)CCC[C@H](C)CCCC(C)C)C(=O)c2ccccc2C1=O` [3-Phytylamenadione (Vitamin K1), 3-Phytylamenadione], which “Competition (inhibition of Bodipy-FA uptake)” value [1, 7] is on record?
Answer: The value was “− (0%-30% inhibition by the indicated substance)”.

Question: How did the “Competition (inhibition of Bodipy-FA uptake)” value [1, 7] turn out when `CCCCCCCC/C=C\CCCCCCCC(=O)O[C@H]1CC[C@@]2(C)C(=CC[C@H]3[C@@H]4CC[C@H]([C@H](C)CCCC(C)C)[C@@]4(C)CC[C@@H]32)C1` [Cholesteryl Oleate] was run?
Answer: The value was “− (0%-30% inhibition by the indicated substance)”.

Question: With `CCCCC/C=C\C/C=C\C/C=C\C/C=C\CCCC(=O)O` [Arachidonate] as the compound, how does the “Uptake, 293 Cells Control” value [3] read?
Answer: Its value is 3 pmol/min 10^6 cells.

Question: And the “Uptake, Enterocytes” value [4]?
Answer: The value was 0 pmol/min 10^6 cells.

Question: Which “Uptake, 293 Cells Stably Expressing FATP4” value [2] does the source give for `CCCCCCCC/C=C\CCCCCCCC(=O)O` [Oleate, Oleic Acid] here?
Answer: The value was 1122 pmol/min 10^6 cells.

Question: And the “Uptake, FATP4 specific” value [2]?
Answer: Its value is 459 pmol/min 10^6 cells.

Question: What about the “Effect of hsFATP4 expression” value [2] of the same compound?
Answer: Its value is “accelerated the uptake”.

Question: What about the “Competition (inhibition of Bodipy-FA uptake)” value [1, 7] of the same compound?
Answer: Its value is “++ (70%-100% inhibition)”.

Question: And the “Uptake, 293 Cells Control” value [3]?
Answer: The value was 662 pmol/min 10^6 cells.

Question: What about the “Uptake, Enterocytes” value [4] of the same compound?
Answer: Its value is 117 pmol/min 10^6 cells.

Question: And the “Transport of the substrate” value [4]?
Answer: Its value is “preference”.

Question: `CCCCCCCC/C=C\CCCCCCCC(=O)SCCNC(=O)CCNC(=O)[C@H](O)C(C)(C)COP(=O)(O)OP(=O)(O)OC[C@H]1O[C@@H](n2cnc3c(N)ncnc32)[C@H](O)[C@@H]1OP(=O)(O)O` [Oleoyl CoA] was tested. Which inhibition at 100 µM [1, 7] did it give?
Answer: Its inhibition at 100 µM is 0 to 30%.

Question: Which results are given for `CCCCCCCCCCCCCCCC(=O)O` [Palmitate, Palmitic Acid]?
Answer: Uptake, 293 Cells Stably Expressing FATP4 [2]: 1695 pmol/min 10^6 cells; Uptake, FATP4 specific [2]: 1131 pmol/min 10^6 cells; Enhancement of rate of uptake by hsFATP4 expression over 293 cells transfected with vector alone ([2]; stably transfected 293 cells, FIG. 97): approximately 3 fold; inhibition at 100 µM [1, 7]: 70 to 100%; Uptake, 293 Cells Control [3]: 564 pmol/min 10^6 cells; Uptake, Enterocytes [4]: 3036 pmol/min 10^6 cells; Transport of the substrate by isolated primary enterocytes (in words) [4]: preference

Question: How did the inhibition at 100 µM [1] turn out when `CCCCCCCCCCCCCCCCCCCCCCCC(=O)O` [Lignoceric Acid] was run?
Answer: Its inhibition at 100 µM is 70 to 100%.

Question: How did the “Uptake, 293 Cells Stably Expressing FATP4” value [2] turn out when `CCCCCCCC(=O)O` [Octanoate, Caprylic Acid] was run?
Answer: The value was 0 pmol/min 10^6 cells.

Question: What about the “Uptake, FATP4 specific” value [2] of the same compound?
Answer: The value was 0 pmol/min 10^6 cells.

Question: What about the “Effect of hsFATP4 expression” value [2] of the same compound?
Answer: The value was “not”.

Question: What about the inhibition at 100 µM [1] of the same compound?
Answer: The inhibition at 100 µM was 0 to 30%.

Question: What about the “Uptake, 293 Cells Control” value [3] of the same compound?
Answer: Its value is 0 pmol/min 10^6 cells.

Question: And the “Uptake, Enterocytes” value [4]?
Answer: Its value is 5 pmol/min 10^6 cells.

Question: And the “Transport of the substrate” value [4]?
Answer: Its value is “absence of transport”.

Question: How did the “Competition (inhibition of Bodipy-FA uptake)” value [1, 7] turn out when `CCCCC[C@H](O)/C=C/[C@H]1[C@H](O)CC(=O)[C@@H]1C/C=C\CCCC(=O)O` [Prostaglandin E2] was run?
Answer: Its value is “− (0%-30% inhibition by the indicated substance)”.

Question: How did the “Inhibition of fatty acid (oleate) uptake over time” value [5] turn out when “FATP4-AS2: Antisense oligo CCCCCACCAGAGAGGCTCC (SEQ ID NO:103), complementary to nucleotides 10 to 28 of the mouse FATP4 coding sequence (chemistry not given here)” was run?
Answer: Its value is ~50%.

Question: What about the “Inhibition of oleate uptake over a 5 minute interval” value ([5]; 48 h incubation, FIG. 41) of the same compound?
Answer: The value was ~50%.

Question: What about the “Methionine (amino acid) uptake” value [6] of the same compound?
Answer: Its value is “not influenced”.

Question: For `CCCCCCCC/C=C\CCCCCCCC(=O)OCC` [Oleic Acid Ethyl Ester], which inhibition at 100 µM [1, 7] is on record?
Answer: Its inhibition at 100 µM is 0 to 30%.

Question: With `CCCCCCCCCCCCCC(=O)O` [Myristic Acid] as the compound, how does the inhibition at 100 µM [1] read?
Answer: Its inhibition at 100 µM is 70 to 100%.

Question: `CCCC(=O)O` [Butyrate, Butyric Acid] was tested. Which “Uptake, 293 Cells Control” value [3] did it give?
Answer: Its value is 0 pmol/min 10^6 cells.

Question: And the “Uptake, Enterocytes” value [4]?
Answer: The value was 73 pmol/min 10^6 cells.

Question: And the “Transport of the substrate” value [4]?
Answer: Its value is “absence of transport”.

Question: How did the inhibition at 100 µM [1, 7] turn out when `CC1=C(/C=C/C(C)=C/C=C/C(C)=C/C(=O)O)C(C)(C)CCC1` [Retinoic Acid (Pro-Vitamin A), Retinoic Acid] was run?
Answer: Its inhibition at 100 µM is 30 to 50%.

Question: Which inhibition at 100 µM [1, 7] does the source give for `CCCCCCCCCC(=O)O` [Capric Acid] here?
Answer: The inhibition at 100 µM was 70 to 100%.

Question: `CCCCCCCC/C=C\CCCCCCCCOC(=O)CCCCCCC/C=C\CCCCCCCC` [Oleic Acid Oley Ester] was tested. Which “Competition (inhibition of Bodipy-FA uptake)” value [1, 7] did it give?
Answer: Its value is “− (0%-30% inhibition by the indicated substance)”.

Question: How did the “Uptake, 293 Cells Stably Expressing FATP4” value [2] turn out when `CC(C)CCC[C@@H](C)[C@H]1CC[C@H]2[C@@H]3CC=C4C[C@@H](O)CC[C@]4(C)[C@H]3CC[C@]12C` [Cholesterol] was run?
Answer: Its value is 345 pmol/min 10^6 cells.

Question: What about the “Uptake, FATP4 specific” value [2] of the same compound?
Answer: The value was 26 pmol/min 10^6 cells.

Question: What about the “Effect of hsFATP4 expression” value [2] of the same compound?
Answer: The value was “not”.

Question: And the “Uptake, 293 Cells Control” value [3]?
Answer: Its value is 319 pmol/min 10^6 cells.

Question: What about the “Uptake, Enterocytes” value [4] of the same compound?
Answer: Its value is 531 pmol/min 10^6 cells.

Question: What about the “Transport of the substrate” value [4] of the same compound?
Answer: The value was “more robust transport”.

Question: With “Ergocalciferol [Ergocalciferol (Vitamin D2)]” as the compound, how does the “Competition (inhibition of Bodipy-FA uptake)” value [1, 7] read?
Answer: The value was “− (0%-30% inhibition by the indicated substance)”.

Question: With `CCCCCCCCCCCCCCCCCC(=O)O` [Stearic Acid] as the compound, how does the inhibition at 100 µM [1, 7] read?
Answer: Its inhibition at 100 µM is 50 to 70%.

Question: For Tocopherol [Tocopherol (Vitamin E)], which “Competition (inhibition of Bodipy-FA uptake)” value [1, 7] is on record?
Answer: Its value is “− (0%-30% inhibition by the indicated substance)”.

Question: How did the inhibition at 100 µM [1, 7] turn out when `CCCCCCCCCCCCCCCCCCCCCCCCCC(=O)O` [Cerotic Acid] was run?
Answer: Its inhibition at 100 µM is 70 to 100%.

Question: How did the “Inhibition of fatty acid (oleate) uptake over time” value [5] turn out when “FATP4-S2: Sense control oligo GGAGCCTCTCTGGTGGGGG (SEQ ID NO:105) (chemistry not given here)” was run?
Answer: Its value is “did not significantly influence the uptake”.
